PubChem BioAssay (NCI)
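Dose response: 5 concentrations. Exposure: 48 h. Format: 96-well plates. Endpoint: linear interpolation; highest concentration if not reached. TGI denotes the concentration required for complete inhibition of growth.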

Columns and labels:
Experiment in all cases: DTP human tumour cell line panel, 48 h
UACC-62 melanoma = system: UACC-62 melanoma
HL-60(TB) leukemia = system: HL-60(TB) leukemia
MDA-MB-435 = system: MDA-MB-435
CAKI-1 renal = system: CAKI-1 renal
SK-MEL-28 melanoma = system: SK-MEL-28 melanoma
SF-268 CNS = system: SF-268 CNS
U251 CNS = system: U251 CNS
SW-620 colon = system: SW-620 colon
NCI/ADR-RES ovarian = system: NCI/ADR-RES ovarian
OVCAR-5 ovarian = system: OVCAR-5 ovarian
MOLT-4 leukemia = system: MOLT-4 leukemia
NCI-H23 lung = system: NCI-H23 lung
786-0 renal = system: 786-0 renal
K-562 leukemia = system: K-562 leukemia
IGROV1 ovarian = system: IGROV1 ovarian
SK-OV-3 ovarian = system: SK-OV-3 ovarian
SK-MEL-2 melanoma = system: SK-MEL-2 melanoma
SR leukemia = system: SR leukemia
SNB-75 CNS = system: SNB-75 CNS
COLO 205 colon = system: COLO 205 colon
NCI-H460 lung = system: NCI-H460 lung
MALME-3M melanoma = system: MALME-3M melanoma
M14 melanoma = system: M14 melanoma
OVCAR-4 ovarian = system: OVCAR-4 ovarian
RPMI-8226 leukemia = system: RPMI-8226 leukemia
T-47D breast = system: T-47D breast
RXF 393 renal = system: RXF 393 renal
ACHN renal = system: ACHN renal
CCRF-CEM leukemia = system: CCRF-CEM leukemia
A549 NSCLC = system: A549 NSCLC
MCF7 breast = system: MCF7 breast
HOP-62 NSCLC = system: HOP-62 NSCLC
SK-MEL-5 melanoma = system: SK-MEL-5 melanoma
HS 578T breast = system: HS 578T breast
PC-3 prostate = system: PC-3 prostate
NCI-H522 lung = system: NCI-H522 lung
UO-31 renal = system: UO-31 renal
SF-295 CNS = system: SF-295 CNS
HT29 colon = system: HT29 colon
HCT-116 colon = system: HCT-116 colon
HOP-92 NSCLC = system: HOP-92 NSCLC
HCT-15 colon = system: HCT-15 colon
TK-10 renal = system: TK-10 renal
DU-145 prostate = system: DU-145 prostate
KM12 colon = system: KM12 colon
NCI-H226 lung = system: NCI-H226 lung
SN12C renal = system: SN12C renal
LOX IMVI melanoma = system: LOX IMVI melanoma
EKVX NSCLC = system: EKVX NSCLC
SF-539 CNS = system: SF-539 CNS
OVCAR-3 ovarian = system: OVCAR-3 ovarian
BT-549 breast = system: BT-549 breast
OVCAR-8 ovarian = system: OVCAR-8 ovarian
HCC-2998 colon = system: HCC-2998 colon
SNB-19 CNS = system: SNB-19 CNS

Question: With `COc1ccc(-c2coc3cc(O)cc(O)c3c2=O)cc1` as the molecule, how does the TGI (UACC-62 melanoma) read?
Answer: > 10000 nM

Question: And the TGI (HL-60(TB) leukemia)?
Answer: > 10000 nM

Question: What about the TGI (MDA-MB-435) of the same molecule?
Answer: > 10000 nM

Question: What about the TGI (CAKI-1 renal) of the same molecule?
Answer: > 10000 nM

Question: And the TGI (SK-MEL-28 melanoma)?
Answer: > 10000 nM

Question: What about the TGI (SF-268 CNS) of the same molecule?
Answer: > 10000 nM

Question: And the TGI (U251 CNS)?
Answer: > 10000 nM

Question: And the TGI (SW-620 colon)?
Answer: > 10000 nM

Question: What about the TGI (NCI/ADR-RES ovarian) of the same molecule?
Answer: > 10000 nM

Question: And the TGI (OVCAR-5 ovarian)?
Answer: > 10000 nM

Question: What about the TGI (MOLT-4 leukemia) of the same molecule?
Answer: > 10000 nM

Question: What about the TGI (NCI-H23 lung) of the same molecule?
Answer: > 10000 nM

Question: And the TGI (786-0 renal)?
Answer: > 10000 nM

Question: What about the TGI (K-562 leukemia) of the same molecule?
Answer: > 10000 nM

Question: What about the TGI (IGROV1 ovarian) of the same molecule?
Answer: > 10000 nM

Question: And the TGI (SK-OV-3 ovarian)?
Answer: > 10000 nM

Question: And the TGI (SK-MEL-2 melanoma)?
Answer: > 10000 nM

Question: And the TGI (SR leukemia)?
Answer: > 10000 nM

Question: And the TGI (SNB-75 CNS)?
Answer: > 10000 nM

Question: And the TGI (COLO 205 colon)?
Answer: > 10000 nM

Question: What about the TGI (NCI-H460 lung) of the same molecule?
Answer: > 10000 nM

Question: And the TGI (MALME-3M melanoma)?
Answer: > 10000 nM

Question: And the TGI (M14 melanoma)?
Answer: > 10000 nM

Question: What about the TGI (OVCAR-4 ovarian) of the same molecule?
Answer: > 10000 nM

Question: What about the TGI (RPMI-8226 leukemia) of the same molecule?
Answer: > 10000 nM

Question: And the TGI (T-47D breast)?
Answer: > 10000 nM

Question: What about the TGI (RXF 393 renal) of the same molecule?
Answer: > 10000 nM

Question: What about the TGI (ACHN renal) of the same molecule?
Answer: > 10000 nM

Question: And the TGI (CCRF-CEM leukemia)?
Answer: > 10000 nM

Question: What about the TGI (A549 NSCLC) of the same molecule?
Answer: > 10000 nM

Question: And the TGI (MCF7 breast)?
Answer: > 10000 nM

Question: And the TGI (HOP-62 NSCLC)?
Answer: > 10000 nM

Question: What about the TGI (SK-MEL-5 melanoma) of the same molecule?
Answer: > 10000 nM

Question: Which results are given for `C/C1=C/C[C@@H](/C(C)=C/c2csc(C)n2)OC(=O)C[C@H](O)C(C)(C)C(=O)[C@H](C)[C@@H](O)[C@@H](C)CCC1`?
Answer: TGI (UACC-62 melanoma): 247 nM; TGI (CAKI-1 renal): 305 nM; TGI (HS 578T breast): < 0.1 nM; TGI (U251 CNS): 169 nM; TGI (SW-620 colon): 240 nM; TGI (NCI/ADR-RES ovarian): 0.238 nM; TGI (PC-3 prostate): 193 nM; TGI (OVCAR-5 ovarian): 189 nM; TGI (MOLT-4 leukemia): 394 nM; TGI (NCI-H522 lung): < 0.1 nM; TGI (UO-31 renal): 181 nM; TGI (NCI-H23 lung): 169 nM; TGI (786-0 renal): 228 nM; TGI (SF-295 CNS): < 0.1 nM; TGI (HT29 colon): 335 nM; TGI (HCT-116 colon): 173 nM; TGI (HOP-92 NSCLC): 302 nM; TGI (HCT-15 colon): 237 nM; TGI (TK-10 renal): 400 nM; TGI (DU-145 prostate): < 0.1 nM; TGI (IGROV1 ovarian): 215 nM; TGI (SK-OV-3 ovarian): 214 nM; TGI (KM12 colon): 196 nM; TGI (NCI-H226 lung): 214 nM; TGI (SK-MEL-2 melanoma): 188 nM; TGI (SN12C renal): 209 nM; TGI (LOX IMVI melanoma): 143 nM; TGI (EKVX NSCLC): 215 nM; TGI (NCI-H460 lung): 230 nM; TGI (SF-539 CNS): < 0.1 nM; TGI (M14 melanoma): 230 nM; TGI (OVCAR-3 ovarian): 173 nM; TGI (OVCAR-4 ovarian): 472 nM; TGI (BT-549 breast): 198 nM; TGI (RPMI-8226 leukemia): 217 nM; TGI (T-47D breast): 361 nM; TGI (OVCAR-8 ovarian): 295 nM; TGI (RXF 393 renal): < 0.1 nM; TGI (ACHN renal): 323 nM; TGI (CCRF-CEM leukemia): 894 nM; TGI (A549 NSCLC): 181 nM; TGI (HCC-2998 colon): 125 nM; TGI (SNB-19 CNS): 189 nM; TGI (MCF7 breast): 231 nM; TGI (HOP-62 NSCLC): 259 nM; TGI (SK-MEL-5 melanoma): 167 nM
